ChEMBL document CHEMBL6182915, “Discovery of a Potent FLT3 Inhibitor (E)-4-(3-(3-Fluoro-4-(morpholinomethyl)styryl)-1H-indazol-6-yl)pyridin-2-amine for the Treatment of Acute Myeloid Leukemia with Multiple FLT3 Mutations” (J Med Chem, 2025)

Experiments:
Test in all cases: cells
[1] = tested on: MV4-11; settings: Homo sapiens, MV4-11, 72 h
Description: Antiproliferative activity against human MV4-11 cells harboring FLT3-ITD mutant assessed as inhibition of cell growth incubated for 3 days by MTT assay

[2] = tested on: MV4-11; settings: Homo sapiens, MV4-11, 72 h; remark: listed apart in the source
[3] = tested on: MV4-11; settings: Homo sapiens, MV4-11, 72 h, read-out: INH

SMILES	IC50 [1] [nM]	IC50 [2] [nM]	inhibition at 10 µM [3] [%]
Nc1cc(-c2ccc3c(CCc4ccc(CN5CCOCC5)c(F)c4)n[nH]c3c2)ccn1	219	> 10000	
CCc1nc(C(N)=O)c(Nc2ccc(N3CCC(N4CCN(C)CC4)CC3)c(OC)c2)nc1NC1CCOCC1 [GILTERITINIB]			> 70
Nc1cc(-c2ccc3c(/C=C/c4ccccc4)n[nH]c3c2)ccn1	39.8	6100	
CN1CCN(Cc2ccc(/C=C/c3n[nH]c4cc(-c5ccnc(N)c5)ccc34)cc2)CC1	16.5	1600	
O=C(Cc1ccc(-c2ccc(OCCN3CCOCC3)cc2)cn1)NCc1ccccc1 [TIRBANIBULIN]			> 70
O=C(c1ccc(/C=C/c2n[nH]c3cc(-c4ccncc4)ccc23)cc1)N1CCNCC1	12.9	3400	
Nc1nccc(-c2ccc3c(/C=C/c4ccc(CN5CCOCC5)c(F)c4)n[nH]c3c2)n1	10.7	600	
O=C(c1ccc(/C=C/c2n[nH]c3ccc(-c4cccnc4)cc23)cc1)N1CCNCC1	15.1	> 10000	
Nc1cc(-c2ccc3c(/C=C/c4ccncc4)n[nH]c3c2)ccn1	18.4	6900	
Nc1cc(-c2ccc3c(/C=C/c4cccnc4)n[nH]c3c2)ccn1	29.5	2300	
Nc1cc(-c2ccc3c(/C=C/c4ccc(CN5CCOCC5)c(Cl)c4)n[nH]c3c2)ccn1	10.4	800	
Nc1cc(-c2ccc3c(-c4ccc(S(=O)(=O)N5CCOCC5)cc4)n[nH]c3c2)ccn1	197	> 10000	
O=C(c1ccc(/C=C/c2n[nH]c3ccc(-c4ccccc4)cc23)cc1)N1CCNCC1	55.3	> 10000	
CN1CCN(Cc2ccc(-c3n[nH]c4cc(-c5ccnc(N)c5)ccc34)cc2)CC1	156	> 10000	
Nc1cc(-c2ccc3c(/C=C/c4ccc(C(=O)N5CCOCC5)cc4)n[nH]c3c2)ccn1	20.3	2300	
CCn1cc(-c2n[nH]c3cc(-c4ccnc(N)c4)ccc23)cn1	163	> 10000	

Continued by falling IC50 [1], values first:

IC50 [1] [nM]	IC50 [2] [nM]	SMILES	inhibition at 10 µM [3] [%]
354	> 10000	COc1cc(/C=C/c2n[nH]c3cc(-c4ccnc(N)c4)ccc23)cc(OC)c1	
222	> 10000	Nc1cc(-c2ccc3c(-c4cnn(CCO)c4)n[nH]c3c2)ccn1	
87.7	> 10000	Nc1cc(-c2ccc3c(-c4ccc(CN5CCOCC5)cc4)n[nH]c3c2)ccn1	
58.7	> 10000	O=C(c1ccc(/C=C/c2n[nH]c3ccc(-c4ccncc4)cc23)cc1)N1CCNCC1	
54.9	> 10000	CN1CCN(c2ccc(-c3n[nH]c4cc(-c5ccnc(N)c5)ccc34)cc2)CC1	
44.5	> 10000	Nc1cc(-c2ccc3c(-c4ccc(N5CCOCC5)cc4)n[nH]c3c2)ccn1	
27.1	> 10000	Nc1ccc(-c2ccc3c(/C=C/c4ccc(C(=O)N5CCNCC5)cc4)n[nH]c3c2)cn1	
25.6	900	Nc1cc(-c2cnc3c(/C=C/c4ccc(CN5CCOCC5)c(F)c4)n[nH]c3c2)ccn1	
22.5	6900	O=C(c1ccc(/C=C/c2n[nH]c3cc(-c4ccccc4)ccc23)cc1)N1CCNCC1	
18.7	5700	O=C(c1ccc(/C=C/c2n[nH]c3cc(-c4ccnc5[nH]ccc45)ccc23)cc1)N1CCNCC1	
16.5	> 10000	O=C(c1ccc(/C=C/c2n[nH]c3cc(-c4cccnc4)ccc23)cc1)N1CCNCC1	
11.4	1100	Nc1cc(-c2ccc3c(/C=C/c4ccc(CN5CCOCC5)cc4)n[nH]c3c2)ccn1	
9	3400	Nc1cc(-c2ccc3c(/C=C/c4ccc(N5CCOCC5)cc4)n[nH]c3c2)ccn1	
6.4	2800	CN1CCN(c2ccc(/C=C/c3n[nH]c4cc(-c5ccnc(N)c5)ccc34)cc2)CC1	
6.2	1800	Nc1cc(-c2ccc3c(/C=C/c4ccc(C(=O)N5CCNCC5)cc4)n[nH]c3c2)ccn1	
